Where “and” joins values, the source holds several entries; their conditions need not be identical. Equal entries are not always repeated.
Test system: 624824-186-R-J3-PDC multicell spheroids, viability
Test: Anticancer human tumor 624824-186-R-J3-PDC patient-derived colon adenocarcinoma cell line growth inhibition [PI3K]
Conditions: for viability, T/C: stronger effect = lower value
In short: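 Three cell types, namely tumor cells, endothelial cells and mesenchymal stem cells, formed each spheroid. Combinations with four PI3K inhibitors were screened at clinically achievable concentrations decreasing by half-log, and spheroid viability was recorded.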

[1] = curve of first compound, second compound 0.00316 µM
[2] = curve of first compound, second compound 0.01 µM
[3] = curve of first compound, second compound 0.0316 µM
[4] = curve of first compound, second compound 0.1 µM
[5] = curve of first compound, second compound 0.316 µM
[6] = curve of first compound, second compound 1 µM
[7] = second compound 0.00316 µM, first compound 0.0316 µM
[8] = second compound 0.00316 µM, first compound 0.1 µM
[9] = second compound 0.00316 µM, first compound 0.316 µM
[10] = second compound 0.00316 µM, first compound 1 µM
[11] = second compound 0.01 µM, first compound 0.0316 µM
[12] = second compound 0.01 µM, first compound 0.1 µM
[13] = second compound 0.01 µM, first compound 0.316 µM
[14] = second compound 0.01 µM, first compound 1 µM
[15] = second compound 0.0316 µM, first compound 0.0316 µM
[16] = second compound 0.0316 µM, first compound 0.1 µM
[17] = second compound 0.0316 µM, first compound 0.316 µM
[18] = second compound 0.0316 µM, first compound 1 µM
[19] = second compound 0.1 µM, first compound 0.0316 µM
[20] = second compound 0.1 µM, first compound 0.1 µM
[21] = second compound 0.1 µM, first compound 0.316 µM
[22] = second compound 0.1 µM, first compound 1 µM
[23] = second compound 0.316 µM, first compound 0.0316 µM
[24] = second compound 0.316 µM, first compound 0.1 µM
[25] = second compound 0.316 µM, first compound 0.316 µM
[26] = second compound 0.316 µM, first compound 1 µM
[27] = second compound 1 µM, first compound 0.0316 µM
[28] = second compound 1 µM, first compound 0.1 µM
[29] = second compound 1 µM, first compound 0.316 µM
[30] = second compound 1 µM, first compound 1 µM
[31] = second compound 0.0316 µM, first compound 3.16 µM
[32] = second compound 0.0316 µM, first compound 10 µM
[33] = second compound 0.1 µM, first compound 3.16 µM
[34] = second compound 0.1 µM, first compound 10 µM
[35] = second compound 0.316 µM, first compound 3.16 µM
[36] = second compound 0.316 µM, first compound 10 µM
[37] = second compound 1 µM, first compound 3.16 µM
[38] = second compound 1 µM, first compound 10 µM
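Further: spheroids exposed to agents for seven days before luminescence read.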
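Wherever viability, T/C is given: luminescent signal used as a stand-in for spheroid viability; percent viability relative to DMSO vehicle control wells taken as 100%.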

CCN1CCN(Cc2ccc(Nc3ncc(F)c(-c4cc(F)c5nc(C)n(C(C)C)c5c4)n3)nc2)CC1 + CC(Nc1ccc2c(c1)OCCn1cc(N3C(=O)OCC3C(F)F)nc1-2)C(N)=O
IC50 [1]: > 1000 nM
IC50 [2]: > 1000 nM
IC50 [3]: > 1000 nM
IC50 [4]: > 1000 nM
IC50 [5]: > 1000 nM
IC50 [6]: 287 nM
viability, T/C (second compound 0.00316 µM, first compound 0.00316 µM): 99.2%
viability, T/C (second compound 0.00316 µM, first compound 0.01 µM): 96.2%
viability, T/C [7]: 106%
viability, T/C [8]: 101%
viability, T/C [9]: 93.2%
viability, T/C [10]: 97.1%
viability, T/C (second compound 0.01 µM, first compound 0.00316 µM): 101%
viability, T/C (second compound 0.01 µM, first compound 0.01 µM): 89%
viability, T/C [11]: 114%
viability, T/C [12]: 102%
viability, T/C [13]: 104%
viability, T/C [14]: 90%
viability, T/C (second compound 0.0316 µM, first compound 0.00316 µM): 101%
viability, T/C (second compound 0.0316 µM, first compound 0.01 µM): 97.8%
viability, T/C [15]: 102%
viability, T/C [16]: 105%
viability, T/C [17]: 89.6%
viability, T/C [18]: 76.3%
viability, T/C (second compound 0.1 µM, first compound 0.00316 µM): 94.6%
viability, T/C (second compound 0.1 µM, first compound 0.01 µM): 96%
viability, T/C [19]: 103%
viability, T/C [20]: 105%
viability, T/C [21]: 75.2%
viability, T/C [22]: 58.3%
viability, T/C (second compound 0.316 µM, first compound 0.00316 µM): 94.5%
viability, T/C (second compound 0.316 µM, first compound 0.01 µM): 92.9%
viability, T/C [23]: 105%
viability, T/C [24]: 77.2%
viability, T/C [25]: 54.6%
viability, T/C [26]: 49%
viability, T/C (second compound 1 µM, first compound 0.00316 µM): 95.6%
viability, T/C (second compound 1 µM, first compound 0.01 µM): 87.6%
viability, T/C [27]: 81.1%
viability, T/C [28]: 56.5%
viability, T/C [29]: 45.4%
viability, T/C [30]: 52.5%

Cn1nccc1Nc1nccc(-c2ccn(C(CO)c3ccc(Cl)c(F)c3)c(=O)c2)n1 (stereo not given)
viability, T/C (compound 0.0316 µM): 102% [middle of 4 runs]
viability, T/C (compound 0.1 µM): 95.1% [middle of 4 runs]
viability, T/C (compound 0.316 µM): 95.9% [middle of 4 runs]
viability, T/C (compound 1 µM): 80.8% [middle of 4 runs]
viability, T/C (compound 3.16 µM): 69.3% [middle of 4 runs]
viability, T/C (compound 10 µM): 60.9% [middle of 4 runs]
IC50 (curve of compound): > 10000 nM

Cn1cnc2c(F)c(Nc3ccc(Br)cc3Cl)c(C(=O)NOCCO)cc21
viability, T/C (compound 0.00949 µM): 97.1% and 99.4% and 96.4%
viability, T/C (compound 0.03 µM): 87.8% and 93.3% and 90.5%
viability, T/C (compound 0.0949 µM): 89.1% and 88.9% and 83.9%
viability, T/C (compound 0.3 µM): 88.5% and 82.7% and 75.8%
viability, T/C (compound 0.949 µM): 67.2% and 63.3% and 74.6%
viability, T/C (compound 3 µM): 41.4% and 38.2% and 43.1%
IC50 (curve of compound): 2050 nM and 1780 nM and 2370 nM

Cn1nccc1Nc1nccc(-c2ccn(C(CO)c3ccc(Cl)c(F)c3)c(=O)c2)n1 (stereo not given) + CC(Nc1ccc2c(c1)OCCn1cc(N3C(=O)OCC3C(F)F)nc1-2)C(N)=O
IC50 [1]: 8240 nM
IC50 [2]: 4070 nM
IC50 [3]: 2580 nM
IC50 [4]: 1270 nM
IC50 [5]: 628 nM
IC50 [6]: 341 nM
viability, T/C [7]: 104%
viability, T/C [8]: 91.1%
viability, T/C [9]: 85%
viability, T/C [10]: 75.9%
viability, T/C (second compound 0.00316 µM, first compound 3.16 µM): 58.8%
viability, T/C (second compound 0.00316 µM, first compound 10 µM): 48.1%
viability, T/C [11]: 93.9%
viability, T/C [12]: 93%
viability, T/C [13]: 90%
viability, T/C [14]: 65.4%
viability, T/C (second compound 0.01 µM, first compound 3.16 µM): 54.9%
viability, T/C (second compound 0.01 µM, first compound 10 µM): 43.9%
viability, T/C [15]: 97.5%
viability, T/C [16]: 107%
viability, T/C [17]: 80.7%
viability, T/C [18]: 68.2%
viability, T/C [31]: 46.2%
viability, T/C [32]: 37.2%
viability, T/C [19]: 102%
viability, T/C [20]: 95%
viability, T/C [21]: 80.6%
viability, T/C [22]: 52.2%
viability, T/C [33]: 36.4%
viability, T/C [34]: 24.8%
viability, T/C [23]: 105%
viability, T/C [24]: 95%
viability, T/C [25]: 76.6%
viability, T/C [26]: 31.7%
viability, T/C [35]: 20.2%
viability, T/C [36]: 17.4%
viability, T/C [27]: 84.1%
viability, T/C [28]: 81.1%
viability, T/C [29]: 51.9%
viability, T/C [30]: 20.5%
viability, T/C [37]: 15.1%
viability, T/C [38]: 15.3%

Cn1ncc(Cl)c1-c1cc(C(=O)NC(CN)Cc2cccc(F)c2)sc1Cl (stereo not given) + CC(Nc1ncnc2nc[nH]c12)c1cc2cccc(Cl)c2c(=O)n1-c1ccccc1
IC50 [3]: > 10000 nM
IC50 [4]: 8150 nM
IC50 [5]: 5630 nM
IC50 [6]: 5170 nM
IC50 (curve of first compound, second compound 3.16 µM): 4180 nM
IC50 (curve of first compound, second compound 10 µM): 2260 nM
viability, T/C [15]: 95.7%
viability, T/C [16]: 109%
viability, T/C [17]: 103%
viability, T/C [18]: 69.4%
viability, T/C [31]: 62.4%
viability, T/C [32]: 47.8%
viability, T/C [19]: 115%
viability, T/C [20]: 101%
viability, T/C [21]: 96.1%
viability, T/C [22]: 83.5%
viability, T/C [33]: 64.5%
viability, T/C [34]: 46.5%
viability, T/C [23]: 103%
viability, T/C [24]: 101%
viability, T/C [25]: 90.7%
viability, T/C [26]: 75.4%
viability, T/C [35]: 59.9%
viability, T/C [36]: 41%
viability, T/C [27]: 107%
viability, T/C [28]: 102%
viability, T/C [29]: 91.9%
viability, T/C [30]: 78.6%
viability, T/C [37]: 61.5%
viability, T/C [38]: 35.2%
viability, T/C (second compound 3.16 µM, first compound 0.0316 µM): 96.8%
viability, T/C (second compound 3.16 µM, first compound 0.1 µM): 94%
viability, T/C (second compound 3.16 µM, first compound 0.316 µM): 86.3%
viability, T/C (second compound 3.16 µM, first compound 1 µM): 64.4%
viability, T/C (second compound 3.16 µM, first compound 3.16 µM): 57.6%
viability, T/C (second compound 3.16 µM, first compound 10 µM): 37.5%
viability, T/C (second compound 10 µM, first compound 0.0316 µM): 94.3%
viability, T/C (second compound 10 µM, first compound 0.1 µM): 89.6%
viability, T/C (second compound 10 µM, first compound 0.316 µM): 73.5%
viability, T/C (second compound 10 µM, first compound 1 µM): 60.5%
viability, T/C (second compound 10 µM, first compound 3.16 µM): 45.7%
viability, T/C (second compound 10 µM, first compound 10 µM): 38.5%
